Source: patent publication EP3822285A1, “VARIANT NISIN PEPTIDES” (University College Cork-National University of Ireland, Cork, priority 2019, dated 2021)
Converted amounts (≈) assume the structure as drawn. “And” between values parts separate entries of the source, which are not always exact repeats. Equal entries are not always repeated. Marks after values point to notes of the source that are not given here.

Columns and labels:
Format in all cases: cell-based
T. thermophilus HB27 = assay: Minimum inhibitory concentration assay (Thermus); conditions: for MIC: pure peptide, mean of triplicate assays
Protocol: (§1) Minimum inhibitory concentration (MIC) determinations for gram negative Thermus strains were carried out in triplicate in round bottom microtitre plates (Corning). 96 well microtitre plates were pre-treated with bovine serum albumin (BSA) prior to addition of the peptides. Briefly, to each well of the microtire plates 200 µl of d.H2O (filtered with 0.2 µm filter) containing 1% (w/w) BSA was added and incubated at 37°C for 30 mins. The wells were washed with 200 µl of IX phosphate buffered saline (PBS) for 2 times after removing 1% BSA d.H2O. 100 µl of growth media, i.e., Castenholz, was added to each well. […] Target strains were grown overnight as per conditions mention above, 0.5 ml of overnight was subcultured in to 10 mls of fresh Castenholz medium and allowed to grow to an OD600 of ∼0.5. 20µl of this subculture was added to 980µl of media, 150µl of this dilution added to 14.85 ml of growth media. 100µl of this dilution added to each well resulting in a final inoculum of ∼10^5 cfu/ml in 200µl. The plates were incubated at 55° C for 3 days and the MIC was determined as the lowest concentration at which no growth was visible.
(§2) The bioactivity of cell-free supernatant can be influenced by altered diffusion rates, solubility, production or specific activity. To determine to what extent, if any, the bioactivity noted above is due to increased specific activity, nisin A (control) and the derivatives were purified and their molecular weights confirmed by MALDI TOF mass spectrometry (Table: 6) (Figure: 4). These peptides were used to perform minimum inhibitory concentration assays against six Thermus strains, i.e., T. thermophilus HB27, T. scotoductus SE-1, T. rehai, T. oshimai, T. aquaticus and T. brockianus.

T. brockianus = assay: Minimum inhibitory concentration assay (Thermus); conditions: pure peptide, mean of triplicate assays
Protocol: as §1, §2

T. oshimai = assay: Minimum inhibitory concentration assay (Thermus); conditions: for MIC: pure peptide, mean of triplicate assays
Protocol: as §1, §2

T. scotoductus SE-1 = assay: Minimum inhibitory concentration assay (Thermus); conditions: for MIC: pure peptide, mean of triplicate assays
Protocol: as §1, §2

T. rehai = assay: Minimum inhibitory concentration assay (Thermus); conditions: for MIC: pure peptide, mean of triplicate assays
Protocol: as §1, §2

T. aquaticus = assay: Minimum inhibitory concentration assay (Thermus); conditions: for MIC: pure peptide, mean of triplicate assays
Protocol: as §1, §2

[1] = tested on: Thermus thermophilus HB27; assay: Agar diffusion assay with cell free supernatant of producing strains; conditions: zone diameter relative to Nisin A wild type (100)
Protocol: (§3) Agar diffusion assays were carried out in triplicate using nisin producing and indicator (T. thermophilus HB27 and T. scotoductus Se-1) strains. Both the producer and indicator strains were cultured as per conditions described above. One ml of overnight culture of indicators were added to 50ml of molten Castenholz agar, briefly swirled and poured. Wells were made using sterile glass pipette. To generate cell free supernatant from nisin producing strains, 10 mls of overnight cultures of the strains were centrifuged at 950g for 20 mins. The cell free supernatant was transferred to a sterile tube. 50 µl of cell free supernatant was added to wells described above. Plates were incubated at 55°C for 3 days and the zone of clearance measured.
(§4) The cell free supernatant of nisin A and nisin variant producing L. lactis was used to determine the bioactivity of these lantibiotics against T. thermophilus HB27 and T. scotoductus SE-1 using agar diffusion assays, with the zone of clearance representing the bioactivity of the producing strain (i.e., representing a combination of the amount of the peptide produced and the specific activity of that peptide). […] Among the variants tested were those with altered N-terminal domains. The N-terminal domain of nisin is important for binding with the pyrophosphate moiety of lipid II to mediate pore formation in the cell membrane. Lysine (K) at position 12, which serves as a small flexible region between ring B and C, and is one of among the 5 positively charged residues (K12, K22, K34, H27, […]) of nisin A that contributes to its cationic nature and its attraction to the cell envelope.

Thermus scotoductus SE-1 = assay: as above; conditions: zone diameter relative to Nisin A wild type (100)
Protocol: as §3, §4

| Compound | MIC (T. thermophilus HB27) | MIC (T. brockianus) | MIC (T. oshimai) | fold better activity than nisin A (T. scotoductus SE-1) | MIC (T. scotoductus SE-1) | MIC (T. rehai) | MIC (T. aquaticus) | % difference [1] | % of wild type (Thermus scotoductus SE-1) | fold better activity than nisin A (T. rehai) | fold better activity than nisin A (T. aquaticus) | fold better activity than nisin A (T. thermophilus HB27) | fold better activity than nisin A (T. oshimai) |
| --- | --- | --- | --- | --- | --- | --- | --- | --- | --- | --- | --- | --- | --- |
| C=C(NC(=O)[C@@H](NC(=O)[C@H](Cc1c[nH]cn1)NC(=O)[C@@H](NC(=O)[C@H](CO)NC(=O)[C@@H]1CS[C@@H](C)[C@H]2NC(=O)[C@H](C)NC(=O)[C@H](NC(=O)[C@H](CCCCN)NC(=O)[C@H](CCSC)NC(=O)[C@H](CC(N)=O)NC(=O)[C@@H]3CS[C@@H](C)[C@@H](NC(=O)[C@H](CO)NC(=O)[C@@H]4CS[C@@H](C)[C@@H](NC(=O)[C@@H]5CSC[C@@H](NC(=O)/C(=C/C)NC(=O)[C@@H](N)[C@@H](C)CC)C(=O)N[C@@H]([C@@H](C)CC)C(=O)NC(=C)C(=O)N[C@@H](CC(C)C)C(=O)N5)C(=O)N5CCC[C@H]5C(=O)NCC(=O)N4)C(=O)NCC(=O)N[C@@H](C)C(=O)N[C@@H](CC(C)C)C(=O)N[C@@H](CCSC)C(=O)NCC(=O)N3)[C@H](C)SC[C@H](NC2=O)C(=O)N[C@@H](Cc2c[nH]cn2)C(=O)N1)[C@@H](C)CC)C(C)C)C(=O)N[C@@H](CCCCN)C(=O)O [K12S] | 0.0312 µM (≈ 0.103 µg/mL) | 0.0312 µM (≈ 0.103 µg/mL) | 0.0156 µM (≈ 0.0517 µg/mL) | 2 fold | 0.0312 µM (≈ 0.103 µg/mL) | 0.0156 µM (≈ 0.0517 µg/mL) | 0.0312 µM (≈ 0.103 µg/mL) | 125% | 123% | – | – | – | – |
| C=C(NC(=O)[C@@H](NC(=O)[C@H](Cc1c[nH]cn1)NC(=O)[C@@H](NC(=O)[C@H](CO)NC(=O)[C@@H]1CS[C@@H](C)[C@H]2NC(=O)[C@H](C)NC(=O)[C@H](NC(=O)[C@H](CCCCN)NC(=O)[C@H](CCSC)NC(=O)[C@H](CC(N)=O)NC(=O)[C@@H]3CS[C@@H](C)[C@@H](NC(=O)[C@H](Cc4ccc(O)cc4)NC(=O)[C@@H]4CS[C@@H](C)[C@@H](NC(=O)[C@@H]5CSC[C@@H](NC(=O)/C(=C/C)NC(=O)[C@@H](N)[C@@H](C)CC)C(=O)N[C@@H]([C@@H](C)CC)C(=O)NC(=C)C(=O)N[C@@H](CC(C)C)C(=O)N5)C(=O)N5CCC[C@H]5C(=O)NCC(=O)N4)C(=O)NCC(=O)N[C@@H](C)C(=O)N[C@@H](CC(C)C)C(=O)N[C@@H](CCSC)C(=O)NCC(=O)N3)[C@H](C)SC[C@H](NC2=O)C(=O)N[C@@H](Cc2c[nH]cn2)C(=O)N1)[C@@H](C)CC)C(C)C)C(=O)N[C@@H](CCCCN)C(=O)O [K12Y] | 0.0156 µM (≈ 0.0529 µg/mL) | 0.0312 µM (≈ 0.106 µg/mL) | 0.0156 µM (≈ 0.0529 µg/mL) | – | 0.625 µM (≈ 2.12 µg/mL) | 6.6 µg/L and 0.00195 µM | 26.4 µg/L and 0.0078 µM | 94% | 74% | 4 fold | 2 fold | – | – |
| C=C(NC(=O)[C@@H](NC(=O)[C@H](Cc1c[nH]cn1)NC(=O)[C@@H](NC(=O)[C@H](CO)NC(=O)[C@@H]1CS[C@@H](C)[C@H]2NC(=O)[C@H](C)NC(=O)[C@H](NC(=O)[C@H](CCCCN)NC(=O)[C@H](Cc3ccccc3)NC(=O)[C@H](CC(N)=O)NC(=O)[C@@H]3CS[C@@H](C)[C@@H](NC(=O)[C@H](CCCCN)NC(=O)[C@@H]4CS[C@@H](C)[C@@H](NC(=O)[C@@H]5CSC[C@@H](NC(=O)/C(=C/C)NC(=O)[C@@H](N)[C@@H](C)CC)C(=O)N[C@@H]([C@@H](C)CC)C(=O)NC(=C)C(=O)N[C@@H](CC(C)C)C(=O)N5)C(=O)N5CCC[C@H]5C(=O)NCC(=O)N4)C(=O)NCC(=O)N[C@@H](C)C(=O)N[C@@H](CC(C)C)C(=O)N[C@@H](CCSC)C(=O)NCC(=O)N3)[C@H](C)SC[C@H](NC2=O)C(=O)N[C@@H](Cc2c[nH]cn2)C(=O)N1)[C@@H](C)CC)C(C)C)C(=O)N[C@@H](CCCCN)C(=O)O [M21F] | 0.0039 µM (≈ 0.0131 µg/mL) | 0.0078 µM (≈ 0.0263 µg/mL) | 0.00195 µM (≈ 0.00657 µg/mL) | – | 0.0312 µM (≈ 0.105 µg/mL) | 0.000975 µM (≈ 0.00329 µg/mL) | 0.0039 µM (≈ 0.0131 µg/mL) | 125% | 106% | – | – | – | – |
| C=C(NC(=O)[C@@H](NC(=O)[C@H](Cc1c[nH]cn1)NC(=O)[C@@H](NC(=O)[C@H](CO)NC(=O)[C@@H]1CS[C@@H](C)[C@H]2NC(=O)[C@H](C)NC(=O)[C@H](NC(=O)[C@H](CCCCN)NC(=O)[C@H](CCSC)NC(=O)[C@H](CC(N)=O)NC(=O)[C@@H]3CS[C@@H](C)[C@@H](NC(=O)[C@@H](NC(=O)[C@@H]4CS[C@@H](C)[C@@H](NC(=O)[C@@H]5CSC[C@@H](NC(=O)/C(=C/C)NC(=O)[C@@H](N)[C@@H](C)CC)C(=O)N[C@@H]([C@@H](C)CC)C(=O)NC(=C)C(=O)N[C@@H](CC(C)C)C(=O)N5)C(=O)N5CCC[C@H]5C(=O)NCC(=O)N4)C(C)C)C(=O)NCC(=O)N[C@@H](C)C(=O)N[C@@H](CC(C)C)C(=O)N[C@@H](CCSC)C(=O)NCC(=O)N3)[C@H](C)SC[C@H](NC2=O)C(=O)N[C@@H](Cc2c[nH]cn2)C(=O)N1)[C@@H](C)CC)C(C)C)C(=O)N[C@@H](CCCCN)C(=O)O [K12V] | 12.9 µg/L and 0.0039 µM | 0.0156 µM (≈ 0.0519 µg/mL) | 0.0156 µM (≈ 0.0519 µg/mL) | 2 fold | 103.9 µg/L and 0.0312 µM | 0.0039 µM (≈ 0.013 µg/mL) | 0.0156 µM (≈ 0.0519 µg/mL) | 145* (0.004) % | 125* (0.04) % | 2 fold | – | 2 fold | – |
| C=C(NC(=O)[C@@H](NC(=O)[C@H](Cc1c[nH]cn1)NC(=O)[C@@H](NC(=O)[C@H](CO)NC(=O)[C@@H]1CS[C@@H](C)[C@H]2NC(=O)[C@H](C)NC(=O)[C@H](NC(=O)[C@H](CCCCN)NC(=O)[C@H](CCSC)NC(=O)[C@H](CC(N)=O)NC(=O)[C@@H]3CS[C@@H](C)[C@@H](NC(=O)[C@H](CCCCN)NC(=O)[C@@H]4CS[C@@H](C)[C@@H](NC(=O)[C@@H]5CSC[C@@H](NC(=O)/C(=C/C)NC(=O)[C@@H](N)[C@@H](C)CC)C(=O)N[C@@H]([C@@H](C)CC)C(=O)NC(=C)C(=O)N[C@@H](CC(C)C)C(=O)N5)C(=O)N5CCC[C@H]5C(=O)NCC(=O)N4)C(=O)NCC(=O)N[C@@H](C)C(=O)N[C@@H](CC(C)C)C(=O)N[C@@H](CCSC)C(=O)NCC(=O)N3)[C@H](C)SC[C@H](NC2=O)C(=O)N[C@@H](CCC(N)=O)C(=O)N1)[C@@H](C)CC)C(C)C)C(=O)N[C@@H](CCCCN)C(=O)O [H27Q] | 3.2 µg/L and 0.000975 µM | 0.0156 µM (≈ 0.0522 µg/mL) | 3.2 µg/L and 0.000975 µM | – | 0.0625 µM (≈ 0.209 µg/mL) | 3.2 µg/L and 0.000975 µM | 3.26 µg/L and 0.000975 µM | 136* (0.031) % | 115% | 8 fold | 14 fold | 8 fold | 8 fold |
